Assay results reported in US7038014B2, “Polycation-sensing receptor in aquatic species and methods of use thereof” (Brigham and Women's Hospital, priority 1996, dated 2006).
Several values for one entry are separate records, joined by “and”; a condition that tells them apart may be missing. Equal entries are not always repeated. Where two headings read alike, the source gives them in different places.

How the values were obtained:
SKCaR (SEQ ID NO.: 2) = experiment: FURA 2 intracellular calcium assay of SKCaR activation in transfected HEK cells; assay type: cell-based, dogfish shark (Squalus acanthias)
Source text: SKCaR cDNA (SEQ ID NO.: 1) was ligated into the mammalian expression vector PCDNA II and transfected into HEK cells using standard techniques. The presence of SKCaR protein (SEQ ID NO.: 2) in transfected cells was verified by western blotting. Activation of SKCaR (SEQ ID NO.: 2) by extracellular Ca2+, Mg2+ or NaCl was quantified using a well characterized FURA 2 based assay where increases in intracellular Ca2+ produced by SKCaR activation are detected using methodology published previously the Dr. E. Brown's laboratory (Bai, M., S. Quinn, S. Trvedi, O. Kifor, S. H. S. Pearce, M. R. Pollack, K. Krapcho, S. C. Hebert and E. M. Brown. Expression and characterization of inactivating and activating mutations in the human Ca2+-sensing receptor. J. Biol. Chem., 32:19537–19545 (1996)) and expressed as % normalized intracellular calcium response to receptor activation.

[1] = system: isolated urinary bladder of winter flounder (PVCR; thiazide-sensitive NaCl cotransporter); experiment: Water reabsorption (Jv) in isolated winter flounder urinary bladder, gravimetric; assay type: cell-based, winter flounder (Pseudopleuronectes americanus); settings: for water reabsorption (Jv): control Jv 130±28; for inhibition of water reabsorption: application of agent, concentration not stated (summary); for IC50: read-out: half maximal inhibitory concentration for urinary bladder Jv (IC50); for reversibility of inhibitory effect on Jv: upon removal of agonist
Experimental: To provide further evidence linking Aquatic PVCRs to fish osmoregulation, isolated urinary bladder of winter founder was used to investigate whether PVCRs modulate epithelial cell ion transport. […] Water reabsorption from the urine stored in urinary bladder allows for the concentrations of both Mg^2+ and Ca^2+ to increase to values as high as 84 mM and 7 mM respectively in marine founders (Elger, E. B., et al., J. Como. Physiol., B157:21 (1987)). 5 Net apical to basolateral water flux (Jv) was measured gravimetrically in 10 minute intervals using individual urinary bladder excised from winter flounder. […] The weight of the bladder was measured before and after the experimental period, wherein the experimental period comprised the period of time that the isolated bladder was exposed to test compound. The compound to be tested (e.g., test compound) was added to both serosal and mucosal solutions. The bladders were dried and weighted as described in Renfro et al. The difference in bladder weight prior to and after exposure to test compound is an indication of water reabsorption by the bladder.
Endocrinol. 127:1064–1071 (1990). […]

mammalian CaRs = biological target: T1, mammalian CaRs (Bos taurus, UniProt P35384); settings: literature value; cited from earlier work
T1 sequence (P35384 20-1085): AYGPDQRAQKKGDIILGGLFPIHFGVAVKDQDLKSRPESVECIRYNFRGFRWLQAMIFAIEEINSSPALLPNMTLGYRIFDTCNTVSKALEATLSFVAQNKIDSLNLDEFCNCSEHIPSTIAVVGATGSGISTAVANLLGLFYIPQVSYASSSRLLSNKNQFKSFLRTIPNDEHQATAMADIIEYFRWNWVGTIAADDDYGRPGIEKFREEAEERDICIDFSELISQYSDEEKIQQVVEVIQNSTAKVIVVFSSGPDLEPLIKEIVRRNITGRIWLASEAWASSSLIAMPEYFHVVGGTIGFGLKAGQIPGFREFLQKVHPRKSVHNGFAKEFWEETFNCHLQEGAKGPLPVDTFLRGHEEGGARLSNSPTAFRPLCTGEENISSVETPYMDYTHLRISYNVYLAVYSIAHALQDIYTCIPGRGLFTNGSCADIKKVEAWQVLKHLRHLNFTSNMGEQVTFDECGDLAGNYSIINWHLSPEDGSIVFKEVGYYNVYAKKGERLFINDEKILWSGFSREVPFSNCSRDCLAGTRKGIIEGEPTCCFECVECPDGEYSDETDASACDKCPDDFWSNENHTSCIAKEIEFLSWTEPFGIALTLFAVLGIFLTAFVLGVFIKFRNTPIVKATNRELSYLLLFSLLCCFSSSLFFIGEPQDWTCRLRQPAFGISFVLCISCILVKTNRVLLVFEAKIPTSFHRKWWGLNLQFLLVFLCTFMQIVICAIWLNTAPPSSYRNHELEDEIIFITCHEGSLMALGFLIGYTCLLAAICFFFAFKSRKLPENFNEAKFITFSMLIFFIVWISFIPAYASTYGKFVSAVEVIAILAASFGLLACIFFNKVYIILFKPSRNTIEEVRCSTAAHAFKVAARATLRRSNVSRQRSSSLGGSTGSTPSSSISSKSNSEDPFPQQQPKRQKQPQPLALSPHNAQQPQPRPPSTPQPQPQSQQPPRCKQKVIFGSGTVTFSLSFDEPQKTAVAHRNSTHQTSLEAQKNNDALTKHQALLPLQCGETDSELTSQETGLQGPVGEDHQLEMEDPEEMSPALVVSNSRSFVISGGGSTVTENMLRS

[2] = extracellular NaCl 50 mM, read-out: EC50 for activation of SKCaR
[3] = extracellular NaCl 550 mM, read-out: EC50 for activation of SKCaR

| Compound | EC50 (SKCaR (SEQ ID NO.: 2); [2]) [µM] | EC50 (SKCaR (SEQ ID NO.: 2); [3]) [µM] | inhibition of water reabsorption (Jv) ([1]; 100 μM agent) [%] | water reabsorption (Jv) ([1]; 100 μM agent) [μl/gm/hr] | inhibition of water reabsorption [1] [%] | IC50 [1] [µM] | reversibility of inhibitory effect on Jv [1] | other results |
| --- | --- | --- | --- | --- | --- | --- | --- | --- |
| [Ca+2] [Ca2+, calcium] | < 5000 | ~18000 | – | – | – | – | – | effect on sensitivity of SKCaR to Mg2+ (SKCaR (SEQ ID NO.: 2); addition of 3 mM Ca2+, as a function of extracellular NaCl): increases the sensitivity; EC50 (SKCaR (SEQ ID NO.: 2); depending on the extracellular concentration of NaCl, read-out: half maximal activation of SKCaR): 1000 to 15000 µM |
| [Gd+3] [Gd^3+, gadolinium] | – | – | 75±5 | 32±18 | > 90 | 15 | reversible | – |
| [Mg+2] [Mg2+, magnesium] | < 20000 | ~80000 | – | – | – | – | – | concentration range in which SKCaR is activated (SKCaR (SEQ ID NO.: 2); modulated by extracellular NaCl): 5 to 40 mM |
| [Cl-].[Na+] [NaCl] | – | – | – | – | – | – | – | effect on sensitivity of SKCaR to Ca2+ (SKCaR (SEQ ID NO.: 2); increasing concentrations of NaCl): reduce the sensitivity |
| NS(=O)(=O)c1cc2c(cc1Cl)NCNS2(=O)=O [hydrochlorothiazide] | – | – | 86±2 | 18±7 | > 85 | – | – | – |
| neomycin | – | – | – | – | > 50 | 150 | reversible | IC50 (mammalian CaRs): 50 µM and 60 to 70 µM; inhibition of water reabsorption (Jv) ([1]; 200 μM agent): 52±4%; water reabsorption (Jv) ([1]; 200 μM agent): 63±10 μl/gm/hr |
